Results as given in article PMC10816276 (International Journal of Molecular Sciences, 2024).
Values joined by “and” are separate entries in the source; they are usually repeats but may differ in a detail not shown here. Identical values can stand only once.

How the values were obtained:
[1] = biological target: T1, Mushroom tyrosinase (mTyr) (Agaricus bisporus, UniProt C7FF04); details: substrate L-tyrosine; previous experiments; Liu et al., 2023; read-out: IC50, monophenolase activity of mTyr; cited from earlier work
T1 construct: purchased Sigma-Aldrich

ICR mice = experiment: Acute oral toxicity, 14 days; format: in vivo; details: for Death rate / Death toll (♀/♂): 20 mice; for Toxic Symptoms (♀/♂) Perianal Uncleanliness / Toxic Symptoms (♀/♂) Prone State / Toxic Symptoms (♀/♂) Reduced Activities / Toxic Symptoms (♀/♂) Shortness of Breath: n = 20 mice
Procedure: I. Animals. […] Male and female mice were raised separately in sterile PC transparent cages in the room with a 12 h light-dark cycle. The animal procedures followed the guidelines of the National Institute of Health Guide for the Care and Use of Laboratory Animals and were approved by the Institutional Animal Care and Use Committee (IACUC) of Yunnan Institute of Materia Medica.
II. Acute oral_toxicity. […] In this experiment, a 5% sodium carboxymethyl cellulose solution (5% CMC-Na) was chosen as the Vehicle and the solvent for 6′-O-caffeoylarbutin. […] Each mouse in the Vehicle group received an administration of 40 mL∙kg-1 of 5% CMC-Na. The treatment groups were orally administrated 6′-O-caffeoylarbutin twice within a 24_h period, with an interval of approximately 3.5–4.0 h, by dissolving in 5% CMC-Na at three different concentrations. Following administration, all animals in each group were closely monitored for about 2–5 h to observe any physical changes, monitor body weight, and record the death rate. The surviving mice were observed and monitored for an additional 14 days, with their body weight recorded on the 1st, 3rd, 7th, and 14th days. Animals that died during the experimental period or those that survived until the conclusion of the toxicity test were subjected to necropsy, and their organs were histopathologically observed and analyzed. All studies were conducted in accordance with the requirements of Good Laboratory Practice.

T1 sequence (C7FF04 1-392): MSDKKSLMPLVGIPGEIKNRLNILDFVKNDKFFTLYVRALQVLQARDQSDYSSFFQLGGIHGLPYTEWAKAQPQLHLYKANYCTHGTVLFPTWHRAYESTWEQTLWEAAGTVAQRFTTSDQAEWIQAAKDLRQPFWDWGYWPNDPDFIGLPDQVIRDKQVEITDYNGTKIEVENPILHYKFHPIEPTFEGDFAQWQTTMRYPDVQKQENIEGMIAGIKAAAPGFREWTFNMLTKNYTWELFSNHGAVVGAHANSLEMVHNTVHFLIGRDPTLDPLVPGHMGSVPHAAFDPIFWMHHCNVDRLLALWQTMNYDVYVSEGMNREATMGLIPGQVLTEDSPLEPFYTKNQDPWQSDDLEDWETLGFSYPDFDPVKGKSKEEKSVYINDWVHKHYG

O=C(C=Cc1ccc(O)c(O)c1)OCC1OC(Oc2ccc(O)cc2)C(O)C(O)C1O (centres unmarked) [6′-O-caffeoylarbutin]
IC50 [1]: 1110 nM and 1100 nM | Death rate (ICR mice; CA-1, 28056 mg·kg-1 oral): 25% | Death toll (♀/♂) (ICR mice; CA-1, 28056 mg·kg-1 oral): 3/2 | Toxic Symptoms (♀/♂) Perianal Uncleanliness (ICR mice; CA-1, 28,056 mg·kg^−1 oral): 0 | Toxic Symptoms (♀/♂) Prone State (ICR mice; CA-1, 28,056 mg·kg^−1 oral): 2 (0/2) | Toxic Symptoms (♀/♂) Reduced Activities (ICR mice; CA-1, 28,056 mg·kg^−1 oral): 8 (2/6) | Toxic Symptoms (♀/♂) Shortness of Breath (ICR mice; CA-1, 28,056 mg·kg^−1 oral): 4 (2/2) | Body weight gain (ICR mice; CA-1, Female mice): 2.22 ± 0.62 g | body weight, 1st day after the delivery (ICR mice; CA-1, Female mice): 22.26±0.97 | body weight, 3rd day after the delivery (ICR mice; CA-1, Female mice): 24.28±1.18 | body weight, 7th day after the delivery (ICR mice; CA-1, Female mice): 24.88±1.09 | body weight, 14th day after the delivery (ICR mice; CA-1, Female mice): 27.10±1.39 | Body weight gain (ICR mice; CA-1, Male mice): 2.65 ± 1.01 g | body weight, 1st day after the delivery (ICR mice; CA-1, Male mice): 30.75±2.11 | body weight, 3rd day after the delivery (ICR mice; CA-1, Male mice): 33.62±2.35 | body weight, 7th day after the delivery (ICR mice; CA-1, Male mice): 35.25±2.53 | body weight, 14th day after the delivery (ICR mice; CA-1, Male mice): 37.90±3.13 | Death rate (ICR mice; CA-2, 23848 mg·kg-1 oral): 5% | Death toll (♀/♂) (ICR mice; CA-2, 23848 mg·kg-1 oral): 0/1 | Toxic Symptoms (♀/♂) Perianal Uncleanliness (ICR mice; CA-2, 23,848 mg·kg^−1 oral): 0 | Toxic Symptoms (♀/♂) Prone State (ICR mice; CA-2, 23,848 mg·kg^−1 oral): 0 | Toxic Symptoms (♀/♂) Reduced Activities (ICR mice; CA-2, 23,848 mg·kg^−1 oral): 1 (0/1) | Toxic Symptoms (♀/♂) Shortness of Breath (ICR mice; CA-2, 23,848 mg·kg^−1 oral): 0 | Body weight gain (ICR mice; CA-2, Female mice): 1.88 ± 1.17 g | body weight, 1st day after the delivery (ICR mice; CA-2, Female mice): 21.58±1.21 | body weight, 7th day after the delivery (ICR mice; CA-2, Female mice): 23.59±0.50 | body weight, 14th day after the delivery (ICR mice; CA-2, Female mice): 25.47±1.36 | Body weight gain (ICR mice; CA-2, Male mice): 3.38 ± 1.23 g | body weight, 1st day after the delivery (ICR mice; CA-2, Male mice): 30.91±0.87 | body weight, 3rd day after the delivery (ICR mice; CA-2, Male mice): 33.07±1.24 | body weight, 7th day after the delivery (ICR mice; CA-2, Male mice): 33.88±1.71 | body weight, 14th day after the delivery (ICR mice; CA-2, Male mice): 37.26±2.19 | Death toll (♀/♂) (ICR mice; CA-3, 20272 mg·kg-1 oral): 0/0 | Toxic Symptoms (♀/♂) Perianal Uncleanliness (ICR mice; CA-3, 20,272 mg·kg^−1 oral): 0 | Toxic Symptoms (♀/♂) Prone State (ICR mice; CA-3, 20,272 mg·kg^−1 oral): 0 | Toxic Symptoms (♀/♂) Reduced Activities (ICR mice; CA-3, 20,272 mg·kg^−1 oral): 0 | Toxic Symptoms (♀/♂) Shortness of Breath (ICR mice; CA-3, 20,272 mg·kg^−1 oral): 0 | Body weight gain (ICR mice; CA-3, Female mice): 2.41 ± 1.51 g | body weight, 1st day after the delivery (ICR mice; CA-3, Female mice): 22.21±0.87 | body weight, 3rd day after the delivery (ICR mice; CA-3, Female mice): 23.36±0.66 | body weight, 14th day after the delivery (ICR mice; CA-3, Female mice): 26.62±1.54 | Body weight gain (ICR mice; CA-3, Male mice): 1.45 ± 3.11 g | body weight, 1st day after the delivery (ICR mice; CA-3, Male mice): 30.89±1.57 | body weight, 3rd day after the delivery (ICR mice; CA-3, Male mice): 33.88±1.41 | body weight, 7th day after the delivery (ICR mice; CA-3, Male mice): 35.33±1.44 | body weight, 14th day after the delivery (ICR mice; CA-3, Male mice): 36.78±3.53 | deaths (ICR mice; mouse, in vivo): no deaths
